Results reported in patent publication US20240051975A1 (TSINGHUA UNIVERSITY, priority 2020, published 2024).

target: NAMPT (Homo sapiens, UniProt P43490); test: NAMPT enzyme activity assay coupled with NMNAT1 and ADH (NADH fluorescence); settings: AUC of dose-response curve (0.1, 0.3, 1, 3, 10 μM) relative to AUC of NAT (NAT = 1); 1 μM NAMPT, 200 μM NAM
Sequence (P43490 whole entry, species assumed): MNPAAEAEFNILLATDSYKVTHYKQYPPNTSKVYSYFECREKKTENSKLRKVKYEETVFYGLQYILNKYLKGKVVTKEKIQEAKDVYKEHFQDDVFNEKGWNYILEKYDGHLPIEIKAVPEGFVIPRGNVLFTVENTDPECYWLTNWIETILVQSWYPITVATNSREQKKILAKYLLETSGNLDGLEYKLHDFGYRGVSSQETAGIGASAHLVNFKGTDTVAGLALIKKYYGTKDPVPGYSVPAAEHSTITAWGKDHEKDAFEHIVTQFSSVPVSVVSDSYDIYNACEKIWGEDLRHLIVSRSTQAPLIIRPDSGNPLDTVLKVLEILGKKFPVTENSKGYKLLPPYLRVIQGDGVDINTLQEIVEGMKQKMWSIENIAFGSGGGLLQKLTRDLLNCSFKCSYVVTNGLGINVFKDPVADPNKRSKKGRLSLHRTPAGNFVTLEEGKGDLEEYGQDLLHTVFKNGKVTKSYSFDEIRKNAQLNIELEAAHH
Description: The NAMPT enzyme activity was assayed by a method coupled with the three enzymes: NAMPT, NMNAT1 and alcohol dehydrogenase (ADH). NAMPT synthesizes NMN from NAM and PRPP, NMNAT1 synthesizes NAD from NMN produced in the first step, and ADH converts NAD into detectable fluorescent NADH. […] The reaction was initiated by adding 200 μM nicotinamide (NAM) and mixing gently. The enzyme activity of NAMPT was expressed as the concentration of NADH generated per minute (the molar value was equal to NAD). The relative enzyme activity of NAMPT in each compound-treated group was normalized by the value of the DMSO-treated group, and a dose-response curve was drawn to evaluate the effect of individual compounds on NAMPT enzyme activity. The area under the dose-response curve (AUC, area under curve) was then calculated for individual compound and compared to the AUC of NAT, so that the obtained relative value quantitative Eauc represented the enzyme activation activity of each compound, and the specific calculation formula was shown in FIG. 3.

Relative activation of NAMPT activity | SMILES
−0.096 | CC(C)(C)c1ccccc1OCC(=O)Nc1ccc(S)cc1 [Compound 34, 2-(2-(tert-butyl)phenoxy)-N-(4-mercaptophenyl)acetamide]
−0.0889 | CC(C)(C)c1ccccc1OCC(=O)Nc1ccc(O)cc1C(=O)O [Compound 35, 2-(2-(2-(tert-butyl)phenoxy)acetamido)-5-hydroxybenzoic acid]
−0.1366 | CC(C)(C)c1ccccc1OCC(=O)Nc1ccc(O)c(O)c1 [Compound 37, 2-(2-(tert-butyl)phenoxy)-N-(3,4-dihydroxyphenyl)acetamide]
−0.12 | CC(C)(C)c1ccccc1OCC(=O)Nc1ccc(O)cc1C(F)(F)F [Compound 38, 2-(2-(tert-butyl)phenoxy)-N-(4-hydroxy-2-(trifluoromethyl)phenyl)acetamide]
−0.1435 | CC(C)(C)c1ccccc1OCC(=O)Nc1ccc(O)c(C(F)(F)F)c1 [Compound 39, 2-(2-(tert-butyl)phenoxy)-N-(4-hydroxyl-3-(trifluoromethyl)phenyl)acetamide]
−0.1833 | CC(C)(C)c1ccccc1OCC(=O)Nc1ccc(O)c(Cl)c1 [Compound 42, 2-(2-(tert-butyl)phenoxy)-N-(3-chloro-4-hydroxyphenyl)acetamide]
−0.168 | Cc1cc(O)ccc1NC(=O)COc1ccccc1C(C)(C)C [Compound 43]
−0.1512 | COc1cc(NC(=O)COc2ccccc2C(C)(C)C)ccc1O [Compound 44, 2-(2-(tert-butyl)phenoxy)-N-(4-hydroxyl-3-methoxyphenyl)acetamide]
−0.3625 | COC(=O)c1cc(NC(=O)COc2ccccc2C(C)(C)C)ccc1O [Compound 45, 5-(2-(2-(tert-butyl)phenoxy)acetamido)-2-hydroxybenzoic acid methyl ester]
−0.1777 | CC(=O)c1cc(NC(=O)COc2ccccc2C(C)(C)C)ccc1O [Compound 46, N-(3-acetyl-4-hydroxyphenyl)-2-(2-(tert-butyl)phenoxy)acetamide]
−0.1983 | CC(C)(C)c1ccccc1OCC(=O)Nc1ccc(O)c(CO)c1 [Compound 47, 2-(2-(tert-butyl)phenoxy)-N-(4-hydroxyl-3-(hydroxymethyl)phenyl)acetamide]
−0.1608 | CC(C)(C)c1ccccc1OCC(=O)Nc1ccc(O)cc1O [Compound 48, 2-(2-(tert-butyl)phenoxy)-N-(2,4-dihydroxyphenyl)acetamide]
−0.0947 | CC(C)(C)c1ccccc1OCC(=O)Nc1ccc(O)cn1 [Compound 49, 2-(2-(tert-butyl)phenoxy)-N-(5-hydroxypyridin-2-yl)acetamide]
−0.1356 | CC(C)(C)c1ccccc1OCC(=O)Nc1ccc(O)cc1CO [Compound 50, 2-(2-(tert-butyl)phenoxy)-N-(4-hydroxyl-2-(hydroxymethyl)phenyl)acetamide]
0.02456 | CC(C)(C)c1cc(Br)cc(Br)c1OCC(=O)Nc1ccc(O)cc1 [Compound 60, 2-(2,4-dibromo-6-(tert-butyl)phenoxy)-N-(4-hydroxyphenyl)acetamide]

Continued, compound first:

SMILES | Relative activation of NAMPT activity
CC(C)(C)c1ccccc1OCC(=O)Nc1cccc(O)c1 [Compound 3, 2-(2-(tert-butyl)phenoxy)-N-(3-hydroxyphenyl)acetamide] | −0.1895
CC(C)(C)c1ccccc1OCC(=O)Nc1ccccc1O [Compound 4, 2-(2-(tert-butyl)phenoxy)-N-(2-hydroxyphenyl)acetamide] | −0.1833
COc1ccc(NC(=O)COc2ccccc2C(C)(C)C)cc1 [Compound 5, 2-(2-(tert-butyl)phenoxy)-N-(4-methoxyphenyl)acetamide] | −0.168
CCOC(=O)c1ccc(NC(=O)COc2ccccc2C(C)(C)C)cc1 [Compound 6, ethyl 4-(2-(2-(tert-butyl)phenoxy)acetamido) benzoate] | −0.1512
CN(C)c1ccc(NC(=O)COc2ccccc2C(C)(C)C)cc1 [Compound 7, 2-(2-(tert-butyl)phenoxy)-N-(4-(dimethylamino)phenyl)acetamide] | −0.1777
CC(C)(C)c1ccccc1OCC(=O)Nc1ccc(Cl)cc1 [Compound 8, 2-(2-(tert-butyl)phenoxy)-N-(4-chlorophenyl)acetamide] | −0.1983
CC(C)(C)c1ccccc1OCC(=O)Nc1ccc(F)cc1 [Compound 9, 2-(2-(tert-butyl)phenoxy)-N-(4-fluorophenyl)acetamide] | −0.2123
Cc1ccc(NC(=O)COc2ccccc2C(C)(C)C)cc1 [Compound 10, 2-(2-(tert-butyl)phenoxy)-N-(p-tolyl)acetamide] | −0.1608
CC(C)(C)c1ccccc1OCC(=O)Nc1ccc(Oc2ccccc2)cc1 [Compound 11, 2-(2-(tert-butyl)phenoxy)-N-(4-phenoxyphenyl)acetamide] | −0.1409
CC(C)(C)c1ccccc1OCC(=O)Nc1ccc(-c2ccccc2)cc1 [Compound 12] | −0.0947
CC(C)(C)c1cccc(OCC(=O)Nc2ccc(O)cc2)c1 [Compound 13, 2-(3-(tert-butyl)phenoxy)-N-(4-hydroxyphenyl)acetamide] | 0.2733
CC(C)(C)c1ccc(OCC(=O)Nc2ccc(O)cc2)cc1 [Compound 14, 2-(4-(tert-butyl)phenoxy)-N-(4-hydroxyphenyl)acetamide] | −0.1236
O=C(COc1ccccc1)Nc1ccc(O)cc1 [Compound 16, N-(4-hydroxyphenyl)-2-phenoxyacetamide] | 0.0971
O=C(COc1ccccc1-c1ccccc1)Nc1ccc(O)cc1 [Compound 17, 2-([1,1′-biphenyl]-2-yloxy)-N-(4-hydroxyphenyl)acetamide] | 0.3353
CC(C)(C)c1cccc(C(C)(C)C)c1OCC(=O)Nc1ccc(O)cc1 [Compound 18, 2-(2,6-di-tert-butylphenoxy)-N-(4-hydroxyphenyl)acetamide] | −0.142
Cc1cccc(OCC(=O)Nc2ccc(O)cc2)c1 [Compound 19, N-(4-hydroxyphenyl)-2-(m-tolyloxy)acetamide] | 0.1507
CC(C)(C)c1ccccc1CNC(=O)Nc1ccc(O)cc1 [Compound 25, 1-(2-tert-butyl)benzyl-3-(4-hydroxyl)phenylurea] | −0.2226
CC(C)(C)c1ccccc1OCC(=O)Nc1ccc(S(N)(=O)=O)cc1 [Compound 26, 2-(2-(tert-butyl)phenoxy)-N-(4-sulfamoylphenyl)acetamide] | −0.2346
CC(C)(C)c1ccccc1OCC(=O)Nc1ccc(B(O)O)cc1 [Compound 27] | 0.1217
CC(C)(C)c1ccccc1OCC(=O)Nc1ccc(CO)cc1 [Compound 28, 2-(2-(tert-butyl)phenoxy)-N-(4-(hydroxymethyl)phenyl)acetamide] | −0.2198
CC(C)(C)OC(=O)Nc1ccc(NC(=O)COc2ccccc2C(C)(C)C)cc1 [Compound 29, tert-butyl (4-(2-(2-(tert-butyl)phenoxy)acetamido)phenyl)carbamate] | −0.1978
CC(C)(C)c1ccccc1OCC(=O)Nc1ccc(N)cc1 [Compound 30, N-(4-aminophenyl)-2-(2-(tert-butyl)phenoxy)acetamide] | 0.8075
CC(C)(C)c1ccccc1OCC(=O)Nc1ccc(C#N)cc1 [Compound 32, 2-(2-(tert-butyl)phenoxy)-N-(4-cyanophenyl)acetamide] | −0.2396
CC(C)(C)c1ccccc1OCC(=O)Nc1ccc(C(=O)O)cc1 [Compound 33, 4-(2-(2-(tert-butyl)phenoxy)acetamido)benzoic acid] | −0.1619

test system: cell death induced by the NAMPT inhibitor FK866; test: Protection against cell death induced by the NAMPT inhibitor FK866 (Celltiter-Glo, cellular ATP); type: cell-based; settings: AUC of dose-response curve (0.1-10 μM) relative to AUC of NAT; 10 nM FK866, 72 hours, cell viability by ATP
Description: In the latter cell-based assay, we determined the degree of protection of NAT and derivatives thereof against the NAMPT inhibitor FK866. […] After 72 hours, Celltiter-Glo (Promega) was used to detect cellular ATP levels to reflect cell viability and normalized to the DMSO group. A dose-response curve was drawn to evaluate the cytoprotective activity of individual compounds against FK866. Then the area under the dose-response curve (AUC, area under curve) of each compound was calculated and compared with the AUC of NAT, so that the obtained relative value quantitatively expressed the cytoprotective activity of each compound.

SMILES | Relative cytoprotective activity
CC(C)(C)c1cccc(OCC(=O)Nc2ccc(O)cc2)c1 [Compound 13, 2-(3-(tert-butyl)phenoxy)-N-(4-hydroxyphenyl)acetamide] | 0.2653
CC(C)(C)c1ccc(OCC(=O)Nc2ccc(O)cc2)cc1 [Compound 14, 2-(4-(tert-butyl)phenoxy)-N-(4-hydroxyphenyl)acetamide] | 0.01994
Cc1ccccc1OCC(=O)Nc1ccc(O)cc1 [Compound 15, N-(4-hydroxyphenyl)-2-(o-tolyloxy)acetamide] | 0.4402
O=C(COc1ccccc1)Nc1ccc(O)cc1 [Compound 16, N-(4-hydroxyphenyl)-2-phenoxyacetamide] | 0.1684
O=C(COc1ccccc1-c1ccccc1)Nc1ccc(O)cc1 [Compound 17, 2-([1,1′-biphenyl]-2-yloxy)-N-(4-hydroxyphenyl)acetamide] | 0.4572
CC(C)(C)c1cccc(C(C)(C)C)c1OCC(=O)Nc1ccc(O)cc1 [Compound 18, 2-(2,6-di-tert-butylphenoxy)-N-(4-hydroxyphenyl)acetamide] | 0.04793
Cc1cccc(OCC(=O)Nc2ccc(O)cc2)c1 [Compound 19, N-(4-hydroxyphenyl)-2-(m-tolyloxy)acetamide] | 0.09517
CC(C)(C)c1cccc(C#N)c1OCC(=O)Nc1ccc(O)cc1 [Compound 21, 2-(2-(tert-butyl)-6-cyanophenoxy)-N-(4-hydroxyphenyl)acetamide] | 2.198
CCc1ccc(OCC(=O)Nc2ccc(O)cc2)c(C(C)(C)C)c1 [Compound 54, 2-(2-(tert-butyl)-4-ethylphenoxy)-N-(4-hydroxyphenyl)acetamide] | 0.8554
CC(C)(C)c1cc(F)ccc1OCC(=O)Nc1ccc(O)cc1 [Compound 56, 2-(2-(tert-butyl)-4-fluorophenoxy)-N-(4-hydroxyphenyl)acetamide] | 0.9846
CC(C)(C)c1cccc(Br)c1OCC(=O)Nc1ccc(O)cc1 [Compound 59, 2-(2-bromo-6-(tert-butyl)phenoxy)-N-(4-hydroxyphenyl)acetamide] | 0.5085

same assay, conditions: against FK866

SMILES | cytoprotective activity (in words)
CC(C)(C)c1cccc(C#N)c1OCC(=O)Nc1ccc(O)cc1 [Compound 21, 2-(2-(tert-butyl)-6-cyanophenoxy)-N-(4-hydroxyphenyl)acetamide] | significantly improved compared with NAT
